Source: patent US5686418A, “Prolonging survival of transplanted pancreatic cells” (Biomeasure Incorporated, priority 1996, dated 1997)
Read-outs that look alike come from different tables or passages of the source. Where a SMILES comes first, the peptide text is derived from it. Bridges are numbered along the chain shown (N, C = ends). [ ]: non-standard residue; d: D form.

Experiments:
human SSTR-1 = human SSTR-1 (Homo sapiens, UniProt P30872); assay: Somatostatin receptor binding assay, hSSTR-1
Sequence of human SSTR-1 (P30872 whole entry, the tested form may be a part): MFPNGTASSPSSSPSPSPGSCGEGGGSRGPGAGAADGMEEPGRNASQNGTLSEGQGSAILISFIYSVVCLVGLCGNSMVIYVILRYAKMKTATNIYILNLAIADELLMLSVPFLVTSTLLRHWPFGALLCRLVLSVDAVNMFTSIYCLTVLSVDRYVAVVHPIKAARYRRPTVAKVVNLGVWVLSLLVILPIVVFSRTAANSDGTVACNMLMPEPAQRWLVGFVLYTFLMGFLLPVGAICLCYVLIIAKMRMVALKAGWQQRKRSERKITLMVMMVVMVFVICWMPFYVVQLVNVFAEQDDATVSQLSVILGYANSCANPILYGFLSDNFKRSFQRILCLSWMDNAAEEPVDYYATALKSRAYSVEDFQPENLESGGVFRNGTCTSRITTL
Text: (§1) The human SSTR-1, SSTR-2, SSTR-3, SSTR-4, and SSTR-5 cDNA clones have been described (SSTR-1 and SSTR-2 in Yamada, Y., et al., Proc. Natl. Acad. Sci. USA., 89:251-255 (1992); SSTR-3 in Yamade, et al., Mol. Endocrinol. 6:2136-2142 (1993); and SSTR-4 and SSTR-5 in Yamada, et al., Biochem. Biophys. Res. Commun. 195:844-852 (1993)) and are also available from American Type Culture Collection (ATCC, Rockville, Md.) (ATCC Nos. 79044 (SSTR-1), 79046 (SSTR-2), and 79048 (SSTR-3)). […] Restriction endonucleases are available from New England Biolabs (Beverly, Mass.). This cDNA fragment was inserted into the mammalian expression vector, pCMV (Russell, D., et al., J. Biol. Chem., 264:8222-8229 (1989)), using standard molecular biology techniques (see e.g., Maniatis, T., et al., Molecular Cloning--A Laboratory Manual, Cold Spring Harbor Laboratory, 1982) to produce the expression plasmid, pCMV-human SSTR-1 through pCMV-human SSTR-5. Other mammalian expression vectors include pcDNA1/Amp (Invitrogen, Sandlesy, Calif.). The expression plasmids were introduced into the suitable bacterial host, E. Coli HB101 (Stratagene, La Jolla, Calif.) and plasmid DNAs, for transfection, were prepared on Cesium Chloride gradients.
(§2) CHO-K1 (ovary, Chinese hamster) cells were obtained from ATCC (ATCC No. CCL 61). […]

human SSTR-2 = human SSTR-2 (Homo sapiens, UniProt P30874); assay: Somatostatin receptor binding assay, hSSTR-2
Sequence of human SSTR-2 (P30874 whole entry): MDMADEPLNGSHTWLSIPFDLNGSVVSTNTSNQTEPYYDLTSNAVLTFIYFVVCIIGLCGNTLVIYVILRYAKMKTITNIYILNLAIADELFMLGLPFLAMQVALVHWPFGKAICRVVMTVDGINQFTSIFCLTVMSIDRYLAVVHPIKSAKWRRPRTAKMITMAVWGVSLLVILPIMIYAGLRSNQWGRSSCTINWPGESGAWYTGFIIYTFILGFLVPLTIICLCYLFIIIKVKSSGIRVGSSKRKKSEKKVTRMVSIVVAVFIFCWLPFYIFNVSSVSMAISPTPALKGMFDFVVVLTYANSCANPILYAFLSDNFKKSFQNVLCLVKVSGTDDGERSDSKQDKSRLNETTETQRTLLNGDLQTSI
Text: as §1, §2

human SSTR-3 = human SSTR-3 (Homo sapiens, UniProt P32745); assay: Somatostatin receptor binding assay, hSSTR-3
Sequence of human SSTR-3 (P32745 whole entry): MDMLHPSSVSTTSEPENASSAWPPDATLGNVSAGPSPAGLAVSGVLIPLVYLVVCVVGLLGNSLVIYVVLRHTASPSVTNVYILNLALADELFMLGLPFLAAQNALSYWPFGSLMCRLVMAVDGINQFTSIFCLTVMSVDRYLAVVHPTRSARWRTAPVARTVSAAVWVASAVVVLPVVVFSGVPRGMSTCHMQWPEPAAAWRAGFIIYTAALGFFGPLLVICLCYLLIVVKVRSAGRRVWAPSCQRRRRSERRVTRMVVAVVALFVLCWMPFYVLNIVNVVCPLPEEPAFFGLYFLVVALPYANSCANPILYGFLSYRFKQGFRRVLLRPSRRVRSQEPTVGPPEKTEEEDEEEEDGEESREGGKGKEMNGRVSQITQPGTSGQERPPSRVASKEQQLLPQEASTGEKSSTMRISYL
Text: as §1, §2

human SSTR-5 = human SSTR-5 (Homo sapiens, UniProt P35346); assay: Somatostatin receptor binding assay, hSSTR-5
Sequence of human SSTR-5 (P35346 whole entry): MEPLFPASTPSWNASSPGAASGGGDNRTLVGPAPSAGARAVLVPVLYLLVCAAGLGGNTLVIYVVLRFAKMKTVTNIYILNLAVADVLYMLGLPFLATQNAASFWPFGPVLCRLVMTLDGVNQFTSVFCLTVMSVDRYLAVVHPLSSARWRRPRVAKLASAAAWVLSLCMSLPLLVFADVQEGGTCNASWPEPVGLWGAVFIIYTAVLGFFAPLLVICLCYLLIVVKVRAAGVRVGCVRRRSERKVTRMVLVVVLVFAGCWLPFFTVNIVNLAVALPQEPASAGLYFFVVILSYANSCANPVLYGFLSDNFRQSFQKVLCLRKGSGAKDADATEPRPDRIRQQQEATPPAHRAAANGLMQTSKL
Text: as §1, §2

human SSTR-4 = human SSTR-4 (Homo sapiens, UniProt P31391); assay: Somatostatin receptor binding assay, hSSTR-4
Sequence of human SSTR-4 (P31391 whole entry): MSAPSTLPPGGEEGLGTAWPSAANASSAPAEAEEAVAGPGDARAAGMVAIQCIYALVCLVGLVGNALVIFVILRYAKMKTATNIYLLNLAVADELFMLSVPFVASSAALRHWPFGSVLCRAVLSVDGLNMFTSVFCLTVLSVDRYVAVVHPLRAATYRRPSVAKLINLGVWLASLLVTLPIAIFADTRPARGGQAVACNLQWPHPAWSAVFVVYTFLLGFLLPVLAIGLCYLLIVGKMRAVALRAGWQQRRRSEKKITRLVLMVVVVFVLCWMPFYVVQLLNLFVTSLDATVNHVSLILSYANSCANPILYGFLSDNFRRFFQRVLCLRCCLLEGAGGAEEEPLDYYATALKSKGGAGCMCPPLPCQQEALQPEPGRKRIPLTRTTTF
Text: as §1, §2

Ki (human SSTR-5; read-out: Ki hSSTR-5) [nM]	SMILES	Ki (human SSTR-1) [nM]	Ki (human SSTR-2) [nM]	Ki (human SSTR-3) [nM]	Ki (human SSTR-4) [nM]	Ki (human SSTR-5) [nM]
0.376	C[C@@H](O)[C@@H]1NC(=O)[C@H](CCCCN)NC(=O)[C@@H](Cc2c[nH]c3ccccc23)NC(=O)[C@H](Cc2ccccc2)NC(=O)[C@H](Cc2ccccc2)NC(=O)[C@@H](N)CSSC[C@@H](C(N)=O)NC(=O)[C@H](Cc2ccccc2)NC1=O [BM-23268, H-Cys-Phe-Phe-D-Trp-Lys-Thr-Phe-Cys-NH2] (H-CFF[dW]KTFC-NH2; disulfide 1-8)	12.3	6.84	61.6		
	C[C@@H](O)[C@H](NC(=O)[C@H](Cc1ccccc1)NC(=O)[C@@H](NC(=O)[C@H](CCCCN)NC(=O)[C@@H](Cc1c[nH]c2ccccc12)NC(=O)[C@H](Cc1ccccc1)NC(=O)[C@H](Cc1ccccc1)NC(=O)[C@H](N)Cc1ccccc1)[C@@H](C)O)C(N)=O [BIM-23052, H-D-Phe-Phe-Phe-D-Trp-Lys-Thr-Phe-Thr-NH2] (H-[dF]FF[dW]KTFT-NH2)	97.6	5.77	5.59	126	1.23
